Data published in publication PMC11207040, “Synthesis and Biological Studies of New Temporin A Analogs Containing Unnatural Amino Acids in Position 7” (Pharmaceutics, 2024).
Values after ≈ are worked out from the molar mass of the structure shown. Where two headings read alike, the source gives them in different places. Non-standard residues stand in square brackets, D forms with d. Residues, ends and D or L forms follow the SMILES beside them. Orn = NCCC[C@H](N)C(=O)O

Legend:
[1] = tested on: Escherichia coli NBIMCC 8785; type: cell-based; details: NBIMCC 8785, 24 h
Experimental: (§1) The parent peptide Temporin A and the novel analogs were subjected to tests against model strains Escherichia coli NBIMCC 8785, Bacillus subtilis NBIMCC 3562, Arthrobacter oxydans NBIMCC 9333, Pseudomonas aeruginosa NBIMCC 3700, and Candida albicans NBIMCC 74, for the assessment of their antimicrobial activity. The strains were acquired from the National Bank for Industrial Microorganisms and Cell Cultures (NBIMCC, Bulgaria). The strain E. coli 8785 was cultured in Luria-Bertani broth (LB, HiMedia, Mumbai, India); B. subtilis 3562—in nutrient broth (NB, HiMedia, Mumbai, India); A. oxydans 9333; P. aeruginosa 3700—in meat peptone agar (MPA) medium; and C. albicans 74—in yeast mold (YM) medium. An incubator shaker ES-20/60 (Biosan, Latvia) was used for the cultivation and was set to 30 °C for B. subtilis 3562, A. oxydans 9333, and C. albicans 74; and 37 °C for E. coli 8785 and P. aeruginosa 3700, with a 24 h shaking period at 120 rpm. The microbial cultures were then adjusted to a turbidity of 0.5 McFarland using a Grant-bio DEN-1B densitometer (Grant Instruments, Royston, UK) for further use.
(§2) The minimal inhibitory concentration (MIC) of the peptides was determined using the broth dilution method. Stock solutions of the peptides with a concentration of 10 mg/mL in 10% EtOH/H2O were prepared. Suspensions of the bacteria in the corresponding media were added to 96-well U-shaped bottom polystyrene plates (Deltalab S.L., Spain) and exposed to the peptide in the concentration range from 0 to 320 µg/mL, and a 10% EtOH/H2O control, diluted using the same scheme as the peptides, was also used. The plates were then incubated under aerobic conditions at the corresponding temperature for 24 h. The MIC (µg/mL) was assumed as the lowest concentration of the antimicrobial, where there was visible inhibition of the strain. The absorbance was measured at 630 nm (Microplate reader PKL PPC 142, Paramedical srl, Salerno, Italy). To determine the minimal bactericidal concentration (MBC) and minimal fungicidal concentration (MFC), 10 μL from concentrations greater than or equal to the MIC was placed on the corresponding solid nutrient medium. The Petri dishes were then incubated at 30 or 37 °C for 24 h. All experiments were conducted in a triplicate.

[2] = tested on: Candida albicans NBIMCC 74; type: cell-based; details: NBIMCC 74, 24 h
Experimental: as §1, §2

[3] = tested on: Arthrobacter oxydans NBIMCC 9333; type: cell-based; details: 24 h
Experimental: as §1, §2

[4] = tested on: Pseudomonas aeruginosa NBIMCC 3700; type: cell-based; details: NBIMCC 3700, 24 h
Experimental: as §1, §2

[5] = tested on: Bacillus subtilis NBIMCC 3562; type: cell-based
Experimental: as §1, §2

[6] = tested on: MCF-12F cells; test: MTT antiproliferative assay, MCF-12F; type: cell-based, human; details: 72 h, non-tumorigenic cell line, read-out: Mean IC50 ± SD, MCF-12F
Experimental: (§3) The cell lines BALB 3T3 (mouse embryonic fibroblasts) and MCF-12F (human breast epithelial cells) were used as models for healthy tissue. The MCF-7 and MDA-MB-231 cell lines were used as in vitro models for luminal A- and basal B-type breast cancer, respectively. Cell lines were obtained from the American Type Cultures Collection (ATCC, Manassas, VA, USA). Cells were cultured in Dulbecco modified Eagle’s medium (DMEM) supplemented with 10% fetal bovine serum (FBS), 100 U/mL penicillin, and 0.1 mg/mL streptomycin (Sigma-Aldrich, Schnelldorf, Germany) in an incubator at 37 °C, 5% CO2 and 95% humidity. Plastic flasks 75 cm^2 (Biologix, Lenexa, KS, USA) were used to grow the cells.
(§4) The antiproliferative activity testing was performed on cell cultures using the MTT-dye reduction assay. This assay is based on the metabolism of MTT to insoluble formazan by mitochondrial reductases. The formazan concentration can be determined spectrophotometrically. The measured absorption is an indicator of cell viability. Cell lines (MCF-12F, MCF-7 and MDA-MB-231) were used in the experiments. Cells were plated at a density of 1 × 10^3 cells/100 µL in each well of 96-well microplates and allowed to adhere for 24 h before treatment with test compounds. A concentration range from 4 to 1000 μM was applied for 72 h. The formazan absorption was registered using a microplate reader at λ = 540 nm. Antiproliferative activities were expressed as IC50 values (concentrations required for 50% inhibition of cell growth).

[7] = tested on: BALB 3T3 clone A31 cells; test: 3T3 NRU cytotoxicity/phototoxicity test; type: cell-based, mouse
Experimental: as §3
(§5) The cytotoxicity/phototoxicity testing was performed as described by the OECD Guidelines for the Testing of Chemicals, Section 4, Test No. 432: In Vitro 3T3 NRU Phototoxicity Test. BALB 3T3, clone A31 cells were grown in 75 cm^2 tissue culture flasks in DMEM high-glucose (4.5 g/L), 10% FBS, and antibiotics at 37.5 °C, in a humidified atmosphere under 5% CO2. Cells were plated at 1 × 10^4 cells / 100 μL culture medium in each well of 96-well microplates and allowed to adhere for 24 h before treatment with test compounds. Peptides were dissolved in DMSO and diluted with culture medium to working concentrations from 4 to 1000 μM. In phototoxicity tests, 96-well plates were irradiated (+Irr) with a dose of 2.4 J/cm^2 using an artificial solar light simulator Helios-iO (SERIC Ltd., Tokyo, Japan), and the cells were incubated for an additional 24 h. After treatment with a Neutral Red medium, washing, and application of the NR Desorb solution, the absorption was measured on a microplate reader at a wavelength of 540 nm. Cytotoxicity/phototoxicity was expressed as CC50 values (concentrations required for 50% cytotoxicity).

[8] = 3T3 NRU cytotoxicity/phototoxicity test; type: cell-based, mouse; details: mouse
Experimental: as §3, §5

[9] = tested on: MCF-7 cells; test: MTT antiproliferative assay, MCF-7; type: cell-based, human; details: for IC50: MTT, 72 h, read-out: Mean IC50 ± SD, MCF-7; for SI (Selectivity Index), MCF-7: SI = IC50 MCF-12F/IC50 tumor cells
Experimental: as §3, §4

[10] = tested on: MDA-MB-231 cells; test: MTT antiproliferative assay, MDA-MB-231; type: cell-based, human; details: for IC50: MTT, 72 h, read-out: Mean IC50 ± SD, MDA-MB-231; for SI (Selectivity Index), MDA-MB-231: SI = IC50 MCF-12F/IC50 tumor cells
Experimental: as §3, §4

[11] = tested on: Escherichia coli NBIMCC 8785; type: cell-based; details: 20 µL per disc, 24 h
Experimental: as §1
(§6) The disk-diffusion method was used as an additional method, with the aim of determining the percent inhibition of the tested samples against the model strains. Sterile plates with LB/NB/MPA/YM agar medium were inoculated on the surface with 100 μL from each microbial culture and incubated at 30 or 37 °C for 30 min, for the suspension to penetrate the agar. After that, sterile paper discs (HiMedia, Mumbai, India) with a diameter of 6 mm were soaked with 20 µL of the peptide solutions with concentrations of 1.4 mg/mL and 10 mg/mL and placed on the agar surface. Sterile paper discs with 10% EtOH/H2O were used as a negative control, and the corresponding strain antibiotic disks (HiMedia, Mumbai, India)—as a positive control. The incubation of the plate was performed at 30/37 °C for 24 h. The antimicrobial activity was analyzed by measuring the diameter of the inhibition zones in mm. The experiments were conducted in triplicates, and the average values for the percent of inhibition as a correlation between the inhibition zone of the peptides over the inhibition zone of the antibiotic multiplied by 100 were calculated.

[12] = tested on: Candida albicans NBIMCC 74; type: cell-based; details: 20 µL per disc, 24 h
Experimental: as §1, §6

[13] = tested on: Arthrobacter oxydans NBIMCC 9333; type: cell-based; details: for Inhibition effect, A. oxydans 9333: zone of peptide over zone of antibiotic x 100; for Inhibition zone, A. oxydans 9333: 20 µL per disc, 24 h
Experimental: as §1, §6

[14] = tested on: Pseudomonas aeruginosa NBIMCC 3700; type: cell-based; details: for Inhibition effect, P. aeruginosa 3700: zone of peptide over zone of antibiotic x 100; for Inhibition zone, P. aeruginosa 3700: 20 µL per disc, 24 h
Experimental: as §1, §6

[15] = tested on: Bacillus subtilis NBIMCC 3562; type: cell-based; details: for Inhibition effect, B. subtilis 3562: zone of peptide over zone of antibiotic x 100; for Inhibition zone, B. subtilis 3562: 20 µL per disc, 24 h
Experimental: as §1, §6

Structure (SMILES): CC[C@H](C)[C@H](NC(=O)CNC(=O)[C@H](CO)NC(=O)[C@H](CC(C)C)NC(=O)[C@@H](NC(=O)[C@H](CCCNC(=N)N)NC(=O)CNC(=O)[C@@H](NC(=O)[C@H](CC(C)C)NC(=O)[C@@H]1CCCN1C(=O)[C@H](CC(C)C)NC(=O)[C@@H](N)Cc1ccccc1)[C@@H](C)CC)C(C)C)C(=O)N[C@@H](CC(C)C)C(N)=O [DTA, FLPLIG-R-VLSGIL-NH2, reference compound] (H-FLPLIGRVLSGIL-NH2)
- MIC, E. coli 8785 [1]: 320 µg/mL (≈ 229 µM)
- MIC, C. albicans 74 [2]: 320 µg/mL (≈ 229 µM)
- MIC, A. oxydans 9333 [3]: 80 µg/mL (≈ 57.3 µM)
- MBC, P. aeruginosa 3700 [4]: 320 µg/mL (≈ 229 µM)
- MBC, B. subtilis 3562 ([5]; NBIMCC 3562, 24 h): 320 µg/mL (≈ 229 µM)
- MIC, B. subtilis 3562 ([5]; NBIMCC 3562, 24 h): 80 µg/mL (≈ 57.3 µM)
- IC50 [6]: 139 ± 8.36 µM
- PIF (photo irritation factor) [7]: 1.01
- CC50 [8]: 106 ± 4.18 µM
- CC50 at 24 h [8]: 105 ± 4.88 µM
- IC50 [9]: 73.2 ± 3.36 µM
- SI (Selectivity Index), MCF-7 [9]: 1.90
- IC50 [10]: 115 ± 4.04 µM
- SI (Selectivity Index), MDA-MB-231 [10]: 1.20

Structure (SMILES): CC[C@H](C)[C@H](NC(=O)CNC(=O)[C@H](CO)NC(=O)[C@H](CC(C)C)NC(=O)[C@@H](NC(=O)[C@H](CCCN)NC(=O)CNC(=O)[C@@H](NC(=O)[C@H](CC(C)C)NC(=O)[C@@H]1CCCN1C(=O)[C@H](CC(C)C)NC(=O)[C@@H](N)Cc1ccccc1)[C@@H](C)CC)C(C)C)C(=O)N[C@@H](CC(C)C)C(N)=O [DTOrn, FLPLIG-Orn-VLSGIL-NH2] (H-FLPLIG[Orn]VLSGIL-NH2; N-terminus assumed)
- Inhibition zone, E. coli 8785 ([11]; peptide 1.4 mg/mL): 0.0 mm
- Inhibition zone, E. coli 8785 ([11]; peptide 10 mg/mL): 0.0 mm
- Inhibition zone, C. albicans 74 ([12]; peptide 1.4 mg/mL): 0.0 mm
- Inhibition zone, C. albicans 74 ([12]; peptide 10 mg/mL): 0.0 mm
- Inhibition effect, A. oxydans 9333 ([13]; 1.4 mg/mL): 0.0%
- Inhibition effect, A. oxydans 9333 ([13]; 10 mg/mL): 43.7%
- Inhibition zone, A. oxydans 9333 ([13]; peptide 1.4 mg/mL): 0.0 mm
- Inhibition zone, A. oxydans 9333 ([13]; peptide 10 mg/mL): 8.3 ± 0.6 mm
- Inhibition effect, P. aeruginosa 3700 ([14]; 1.4 mg/mL): 0.0%
- Inhibition effect, P. aeruginosa 3700 ([14]; 10 mg/mL): 70.6%
- Inhibition zone, P. aeruginosa 3700 ([14]; peptide 1.4 mg/mL): 0.0 mm
- Inhibition zone, P. aeruginosa 3700 ([14]; peptide 10 mg/mL): 11.3 ± 0.6 mm
- Inhibition effect, B. subtilis 3562 ([15]; 1.4 mg/mL): 0.0%
- Inhibition effect, B. subtilis 3562 ([15]; 10 mg/mL): 32.8%
- Inhibition zone, B. subtilis 3562 ([15]; peptide 1.4 mg/mL): 0.0 mm
- Inhibition zone, B. subtilis 3562 ([15]; peptide 10 mg/mL): 8.2 ± 0.3 mm
- MIC, A. oxydans 9333 ([3]; broth dilution, 0 to 320 µg/mL, NI = no inhibition monitored): 160 µg/mL (≈ 118 µM)
- MBC, A. oxydans 9333 ([3]; plated from concentrations ≥ MIC): 160 µg/mL (≈ 118 µM)
- MIC, B. subtilis 3562 ([5]; broth dilution, 0 to 320 µg/mL, 24 h, NI = no inhibition monitored): 160 µg/mL (≈ 118 µM)
- MBC, B. subtilis 3562 ([5]; plated from concentrations ≥ MIC, 24 h): 320 µg/mL (≈ 236 µM)
- IC50 [6]: 306 ± 10.8 µM
- PIF (photo irritation factor) ([7]; PIF = CC50 −Irr/CC50 +Irr, PIF < 2 = not phototoxic): 0.98
- CC50 ([8]; cytotoxicity, no irradiation, BALB 3T3 clone A31, Neutral Red uptake, read-out: Mean CC50 ± SD, −Irr): 337 ± 7.09 µM
- CC50 at 24 h ([8]; phototoxicity, irradiated 2.4 J/cm^2, BALB 3T3 clone A31, Neutral Red uptake, read-out: Mean CC50 ± SD, +Irr): 345 ± 6.41 µM
- IC50 [9]: 196 ± 3.63 µM
- SI (Selectivity Index), MCF-7 [9]: 1.56
- IC50 [10]: 303 ± 8.67 µM
- SI (Selectivity Index), MDA-MB-231 [10]: 1.01
